Experimental data taken from patent publication US20020192223A1 (priority 1989, published 2002).

Assays:
[1] = Solubility of the hydrazone during conjugation; format: physicochemical; settings: PBS
Method: 3. The solution is transferred back to a round bottom flask equipped with a magnetic stirrer and kept in ice. The solution continuously is blanketed by nitrogen. The volume of the solution is noted. […] A solution of maleimidocaproyl hydrazone of adriamycin in distilled water (5 mg/mL, 6.3×10^−3 M) is prepared (notes 7, 8). The amount (in mL) of this solution needed for the conjugation is determined by the formula: [formula]
10. Brief applications of a sonicator will facilitate dissolution in distilled water. The resulting solution is stable.

[2] = tested on: L2987 lung tumor xenografts; assay: BR96-DOX against established subcutaneous xenografts; format: in vivo, athymic mice
Method: Athymic rats were transplanted subcutaneously with human lung adenocarcinoma L2987, colon carcinoma RCA, or breast carcinoma MCF7 and permitted to grow. […]
(§1) Mice and rats were administered with BR96-DOX by three injections, each injection being about four days apart. Mice which were injected intraperitoneally (IP) were given 20 mg/kg of BR96-DOX. Mice which were injected intravenously were given 10 mg/kg of BR96. Intravenous (IV) injection involved less volume of BR96 because of the constraints of injection volume, namely, only 10 mg/kg was administrable by IV.
(§2) Controls One set of controls included untreated mice and mice that received (1) DOX (at doses optimized to produce maximal antitumor activity in each model); (2) unconjugated BR96; (3) mixtures of BR96 and DOX; and (4) DOX conjugated to either normal human IgG or the control MAb SN7. Doses of DOX and MAb are presented as mg/kg/[…].
(§3) Treatment with BR96-DOX consistently cured most mice bearing L2987 (FIG. 46A) or RCA (FIG. 46B) tumors. […] Complete tumor regression (CR) refers to a tumor that for a period of time is not palpable. Partial tumor regression (PR) means a decrease in tumor volume to ≦50% of the initial tumor volume.

[3] = tested on: RCA colon carcinoma xenografts; assay: as above; format: in vivo, athymic mice
Method: (§4) Athymic rats were transplanted subcutaneously with human lung adenocarcinoma L2987, colon carcinoma RCA, or breast carcinoma MCF7 and permitted to grow. Therapy (3 treatments 4 days apart) started 14 to 28 days after tumor transplantation when tumors were well established, i.e., when the tumors were 50 to 100 mm^3 in size.
as §1, §2, §3

[4] = tested on: L2987 spheroids inoculated IV; assay: BR96-DOX against large disseminated tumors; format: in vivo, athymic mice; settings: DOX 8 mg/kg
Description: L2987 lung carcinoma cells were selected in vitro for the ability to grow as multicellular spheroids. When injected IV into athymic mice or rats, tumors developed at various sites, including lymph nodes, lung, spleen, liver, brain, subcutaneously, and ascites was formed in some animals.
Mice were inoculated IV with L2987 spheroids.
The burden of disseminated disease in these animals was so far advanced that 50% of control animals died during the first 6 days of the experiment. […] Surviving mice were sacrificed 200 days after cell inoculation and sections of lung, lymph nodes, spleen, colon, jejunum, kidney, liver, brain, and heart were examined by histology.

[5] = tested on: L2987 human lung carcinoma, subcutaneous; assay: BR96-DOX against human lung tumors implanted in rats; format: in vivo, athymic Rowett rats
Description: Athymic mice and athymic Rowett rats (Harlan Sprague Dawley) were used in this study.
as §4
Another set included rats using the protocol used in control mice.

parental cell line = assay: In vitro 3[H]-thymidine incorporation IC50; format: cell-based
[6] = tested on: cells obtained from tumors that grew back after BR96-DOX induced regression; assay: In vitro 3[H]-thymidine incorporation IC50; format: cell-based; settings: treatment (regrown tumor cells)
[7] = Maximum tolerated dose, 3 injections 4 days apart; format: in vivo, mice; settings: equivalent DOX dose
Method: The maximum tolerated dose (MTD) (equivalent DOX dose) of the BR96-DOX conjugate (administered as 3 injections 4 days apart) was 20 mg/kg administered intraperitoneally (IP). When administered intravenously (IV) the MTD was ≧10 mg/kg. This was the maximum dose that could be administered IV because of the constraints of injection volume.
The MTD of unconjugated DOX (8 mg/kg IV and 4 mg/kg IP) was lower than that of the BR96-DOX conjugate. Unconjugated DOX administered IV at the MTD produced a delay in tumor growth but no tumor regressions and if the dose was reduced to 50% of the MTD, DOX had no effect.

[8] = tested on: L2987 human lung tumor xenografts; assay: Test V in vivo activity of relaxed BR64 and L6 conjugates; parameters: species or system BALB/c nu/nu mice; settings: optimized doses of adriamycin
Method: The in vivo antitumor activity of immunoconjugates of adriamycin and relaxed BR64 or relaxed L6 was evaluated.
Congenitally athymic female mice of BALB/c background (BALB/C nu/nu; Harlan Sprague-Dawley, Indianapolis, Ind.) were used. Mice were housed in Thoren caging units on sterile bedding with controlled temperature and humidity. Animals received sterile food and water ad libitum.
The L2987 human tumor line was established as tumor xenograft models in athymic mice. The tumor line was maintained by serial passage in vivo. Tumors were measured in 2 perpendicular directions at weekly or biweekly intervals using calipers. Tumor volume was calculated according to the equation: [formula]
In general, there were 8-10 mice per control or treatment group. Data are presented as median tumor size for control or treated groups. Antitumor activity is expressed in terms of gross log cell kill (“LCK”) where: [formula] […]
For animals bearing the L2987 human lung tumor, therapy was typically initiated when the median tumor size was 75 mm^3(12-14 days after tumor implant). The average TVDT was 4.8±0.9 days and antitumor activity was assessed at a tumor size of 500 mm^3. […]
Materials under investigation were administered by the ip or iv route. […] Compounds were administered on a mg/kg basis calculated for each animal, and doses are presented as mg/kg of equivalent adriamycin/injection. […]

[9] = tested on: L2987 human lung tumor xenografts; assay: Test VI in vivo activity of ChiBR96-ADM conjugates; parameters: species or system athymic mice
Description: (§5) In general, there were 8-10 mice per control or treatment group. Data are presented as median tumor size for control or treated groups. Antitumor activity is expressed in terms of gross log cell kill (“LCK”) where: [formula]
(§6) T−C is defined as the median time (days) for treated tumors to reach target size minus the median time for control tumors to reach target size and TVDT is the time (days) for control tumors to double in volume (250-500 mm^3). Partial tumor regression (“PR”) refers to a decrease in tumor volume to ≦50% of the initial tumor volume; complete tumor regression (“CR”) refers to a tumor which for a period of time is not palpable; and cure is defined as an established tumor which is not palpable for a period of time ≧10 TVDTs.
(§7) Materials under investigation were administered by the ip or iv route. Adriamycin was diluted in normal saline; antibody and antibody/adriamycin conjugates were diluted in phosphate buffered saline. Compounds were administered on a mg/kg basis calculated for each animal, and doses are presented as mg/kg of equivalent adriamycin/injection. Immunoconjugates were administered on a q4dx3 schedule.
(§8) The antitumor activity of ChiBR96-ADM conjugates was evaluated against established human lung (“L2987”), breast (“MCF7,” obtainable from the ATCC under the accession number ATCC HTB 22; see also I. Hellström, et al., Cancer Research 50:2183 (1990)), and colon (“RCA” from M. Brattain, Baylor University; see also I. Hellström, et al., Cancer Research 50:2183 (1990)) tumors.
(§9) Animals were maintained and tumor xenograft models were established for the MCF7 and RCA and the L2987 human tumor lines as described for the L2987 in Test V. Materials were administered as described in Test V.
For animals bearing the L2987 human lung tumor, therapy typically was initiated when the median tumor size was 75 mm^3 (12-14 days after tumor implant). The average TVDT was 4.8±0.9 days and antitumor activity was assessed at a tumor size of 500 mm^3. In several experiments therapy was initiated when L2987 tumors were 225 mm^3 in size.

[10] = tested on: MCF7 human breast tumor xenografts; assay: Test VI in vivo activity of ChiBR96-ADM conjugates; parameters: species or system athymic mice; settings: ADM 6 mg/kg, iv
Description: as §5, §6, §7, §8, §9
The MCF7 tumor is an estrogen-dependent human breast tumor line. Athymic mice were implanted with 0.65 mg (65 day release rate) estradiol pellets (Innovative Research of America, Toledo, Ohio) on the day of tumor implant. Therapy was initiated when the median tumor size was 100 mm^3 (typically 13 days after tumor implant).

[11] = tested on: RCA human colon tumor xenografts; assay: Test VI in vivo activity of ChiBR96-ADM conjugates; parameters: species or system athymic mice
Description: as §5, §6, §7, §8, §9
For animals bearing the RCA colon tumor, therapy was initiated 15 days after tumor implant when the median tumor size was 75 mm^3. The average TVDT for RCA tumor xenografts was 9.5±1.5 days and antitumor activity was assessed at 400 mm^3.

Structure (SMILES): COc1cccc2c1C(=O)c1c(O)c3c(c(O)c1C2=O)C[C@@](O)(/C(CO)=N/NC(=O)CCCCCN1C(=O)C=CC1=O)C[C@@H]3O[C@H]1C[C@H](N)[C@H](O)[C@H](C)O1 [hydrazone, Maleimidocaproylhydrazone of Adriamycin]
- solubility [1]: not very soluble in PBS

Structure (SMILES): COc1cccc2c1C(=O)c1c(O)c3c(c(O)c1C2=O)C[C@@](O)(C(=O)CO)C[C@@H]3O[C@H]1C[C@H](N)[C@H](O)[C@H](C)O1 [Adriamycin, adriamycin]
- tumor regressions: Complete ([2]; L2987, q4dx3, DOX 8.0, no MAb): 0%
- tumor regressions: Cures ([2]; L2987, q4dx3, DOX 8.0, no MAb): 0%
- tumor regressions: Partial ([2]; L2987, q4dx3, DOX 8.0, no MAb): 0.8 ± 0.8%
- antitumor activity ([2]; L2987 tumors 250 to 800 mm^3, optimal dose of DOX): antitumor activity was not observed
- activity against established RCA tumors (growth delay or regressions) ([3]; DOX alone): not active
- tumor regressions: Complete ([3]; RCA, q4dx3, DOX 8.0, no MAb): 0%
- tumor regressions: Cures ([3]; RCA, q4dx3, DOX 8.0, no MAb): 0%
- tumor regressions: Partial ([3]; RCA, q4dx3, DOX 8.0, no MAb): 0%
- tumor regressions: Complete ([3]; mouse, in vivo): 0%
- tumor regressions: Cures ([3]; mouse, in vivo): 0%
- tumor regressions: Partial ([3]; mouse, in vivo): 0%
- day by which 100% of the mice were dead [4]: 140 days
- MTD of free DOX ([5]; 3 injections 4 days apart): 4 mg/kg
- cures ([5]; rats, 4 mg/kg, 3 injections 4 days apart (MTD of free DOX)): 25%
- IC50 (parental cell line): 300 ± 200 nM
- IC50 [6]: 400 ± 100 nM
- maximum tolerated dose (MTD) ([7]; intraperitoneally (IP)): 4 mg/kg
- maximum tolerated dose (MTD) ([7]; intravenously (IV)): 8 mg/kg
- LCK [8]: 1.1 LCK
- CR ([9]; ADM 8 mg/kg, iv (Table 16)): 0%
- Cure ([9]; ADM 8 mg/kg, iv (Table 16)): 0%
- PR ([9]; ADM 8 mg/kg, iv (Table 16)): 0%
- LCK ([9]; ADM 8 mg/kg, iv, q4dx3 (Table 16)): 1.5
- CR ([9]; ADM 8 mg/kg, no antibody, iv): 0%
- Cure ([9]; ADM 8 mg/kg, no antibody, iv): 0%
- PR ([9]; ADM 8 mg/kg, no antibody, iv): 3.6%
- LCK ([9]; ADM 8 mg/kg, no antibody, iv, q4dx3 (55 mice)): 1-1.8
- LCK ([9]; FIG. 57, optimized adriamycin (8 mg/kg)): 1.0 LCK
- LCK ([9]; FIG. 58, optimized adriamycin): 1.6 LCK
- CR [10]: 0%
- Cure [10]: 0%
- LCK [10]: 1.4
- PR [10]: 0%
- CR ([11]; 10/405 mg/kg, ip): 0%
- Cure ([11]; 10/405 mg/kg, ip): 0%
- LCK ([11]; 10/405 mg/kg, ip): 0
- PR ([11]; 10/405 mg/kg, ip): 0%
- CR ([11]; ADM 8/0 mg/kg, iv): 0%
- Cure ([11]; ADM 8/0 mg/kg, iv): 0%
- LCK ([11]; ADM 8/0 mg/kg, iv): 0.4
- PR ([11]; ADM 8/0 mg/kg, iv): 0%
